≈ marks a conversion by molar mass, not a printed value. Like-named read-outs stand apart in the source and are kept apart here. Each block holds one compound with its values, some of them ahead of it.
Assays:
[1] = Precipitation on further dilution of the organic-aqueous solutions with sterile intravenous solutions; format: physicochemical; settings: solutions of Example 3 diluted with 5% dextrose-0.45% saline or 0.9% saline; 250 ml/hr vehicle, 6 ml/hr drug solution, 12 hours
Protocol: The organic-aqueous solutions of Example 3 are further diluted with two standard sterile intravenous solutions: a 5% dextrose-0.45% saline solution and a 0.9% saline solution. The aqueous delivery vehicles were delivered at a rate of 250 ml/hr. The concentrated drug solutions (approx. 10 mg/ml) were introduced through a side arm tubing located several inches above the injection point for 12 hours at the rate of 6 ml/hr. measured by a calibrated infusion pump. […] At this rate, the effective dosage concentration per unit volume of the final organic-aqueous solution was approximately 1 mg/ml. The final diluted organic-aqueous solutions were filtered using Wattman filter paper.

physchem = format: physicochemical
Protocol: (§1) Two neat, anhydrous solutions of ara-AC dissolved in DMSO and DMA, respectively, were prepared. […] Ara-AC has a solubility of approximately 20 mg/ml in water. The effective dose for ara-AC is 700 mg. […] At higher temperatures (e.g., 50°-60° C.), the ara-AC has proven stable for at least 3 weeks. Thus, the solutions of ara-AC in DMSO and DMA appear to be stable enough for commercial production, handling, and storage. By contrast, a solution of ara-AC in water would degrade 10% in 1.8 hours at 25° C.

[2] = format: physicochemical; settings: for time for which ara-AC has proven stable: neat, higher temperatures (e.g., 50°-60° C.)
Protocol: as §1

[3] = Degradation kinetics of ara-AC in aqueous and mixed organic-aqueous solvent systems at 25° C. (reverse phase HPLC)
[4] = Buffer (phosphate 0.01 M, pH 7.0, μ = 0.1 with NaCl), ara-AC 0.25 mg/ml, measured pH 7.0, 25° C.
[5] = Distilled H2O, ara-AC 0.25 mg/ml, measured pH 6.8, 25° C.

Structure (SMILES): Nc1ncn([C@@H]2O[C@H](CO)[C@@H](O)[C@H]2O)c(=O)n1 [5-AC, 5-azacytidine]
precipitation or other undesirable effects [1]: No precipitation or other undesirable effects

solubility (physchem; dma, organic solvent or mixture): 170 mg/mL (≈ 696 mM)
solubility (physchem; dmso, organic solvent or mixture): 370 mg/mL (≈ 1520 mM)
solubility (physchem; water): ~20 mg/mL (≈ 81.9 mM)
degradation during 5 months [2]: no observable degradation
time for which ara-AC has proven stable ([2]; anhydrous DMA solution): at least 3 weeks
time for which ara-AC has proven stable ([2]; anhydrous DMSO solution): at least 3 weeks
t90 ([3]; 5% DMA in Buffer (phosphate 0.01 M, pH 6.8), ara-AC 5.0 mg/ml, apparent pH 7.0, 25° C.): 1.9 h
t90 ([3]; 5% DMSO in Buffer (phosphate 0.01 M, pH 6.8), ara-AC 5.0 mg/ml, apparent pH 7.0, 25° C.): 2.0 h
t90 ([3]; 10% DMA in Buffer (phosphate 0.01 M, pH 6.8), ara-AC 5.0 mg/ml, apparent pH 7.1, 25° C.): 2.2 h
t90 ([3]; 10% DMSO in Buffer, ara-AC 5.0 mg/ml, apparent pH 7.1, 25° C.): 2.5 h
t90 ([3]; 25% DMA in Buffer (phosphate 0.01 M, pH 6.8), ara-AC 5.0 mg/ml, apparent pH 7.4, 25° C.): 2.7 h
t90 ([3]; 25% DMSO in Buffer, ara-AC 5.0 mg/ml, apparent pH 7.4, 25° C.): 2.8 h
t90 ([3]; 50% DMA in Buffer (phosphate 0.01 M, pH 6.8), ara-AC 5.0 mg/ml, apparent pH 8.1, 25° C.): 4.5 h
t90 ([3]; 55% DMA in Buffer (phosphate 0.01 M, pH 6.8), ara-AC 5.0 mg/ml, apparent pH 8.3, 25° C.): 6.0 h
t90 ([3]; 60% DMA in Buffer (phosphate 0.03 M, pH 6.0, μ = 0.3 M with NaCl), ara-AC 5.0 mg/ml, apparent pH 7.4, 25° C.): 15.0 h
t90 ([3]; 60% DMSO in Buffer (phosphate 0.03 M, pH 6.0, μ = 0.3 M with NaCl), ara-AC 5.0 mg/ml, apparent pH 7.8, 25° C.): 16.0 h
t90 ([3]; 65 wt. % DMA-35 wt. % water solution): 16.0 h
t90 ([3]; 70% DMSO in H2O, ara-AC 5.0 mg/ml, apparent pH 8.0, 25° C.): 28.0 h
t90 ([3]; 70 wt % DMSO-30 wt. % water solution): 28.0 h
Kobs (observed degradation rate constant) [3, 4]: 1.55 × 10^-2 hr.^-1
t90 [3, 4]: 1.7 h
Kobs (observed degradation rate constant) [3, 5]: 1.34 × 10^-2 hr.^-1
t90 [3, 5]: 1.8 h
t90 (10% decomposition in water) ([3]; water, 25° C.): 1.8 h
Structure (SMILES): Nc1ncn([C@@H]2O[C@H](CO)[C@@H](O)[C@@H]2O)c(=O)n1 [ara-AC, 5-azacytosine arabinoside]
precipitation or other undesirable effects [1]: No precipitation or other undesirable effects
